# Results published in patent US6602982B1, “Process for the preparation of regular glycopeptides” (Hokkaido Electric Power Company, Incorporated, priority 1998, dated 2003).
# Protocol: Aqueous solutions of the polymer of Example 5 having various concentrations were prepared, and the freezing point thereof was measured. The freezing point depression was measured with a light microscope with a temperature controller. Firstly, in order to remove any error in the measurement of freezing point due to supercooling, the whole system was previously frozen at −20° C., and then was carefully returned to 0° C. with attention not to dissolve completely the ice nucleus. Then, the system is gradually cooled with observing growth of ice crystal. The freezing point was deemed to be a point at which the growth of ice crystal was stopped and the whole system was frozen.
substance,measurement,setting,value
Olymer of L-Alanine-(β-D-galactopyranosyl)-(1→3)-(2-acetamido-2-deoxy-1-α-D-galactopyranosyl)-L-threonine-L-alanine [Example 5],growth of ice crystal,"aqueous solution, gradual cooling while observing ice crystal growth",inhibited the growth of ice crystal
same,freezing point depression activity,"aqueous solutions of various concentrations, compared with literature data for natural origin AFGP, FIG. 1",almost the same freezing point depression activity as that of the natural origin AFGP
